Results: ChEMBL document CHEMBL2396620, “Synthesis and biological evaluation of novel benzoxazinyl-oxazolidinones as potential antibacterial agents” (2013)
Converted amounts (≈) assume the structure as drawn.

Assays:
Format in all cases: functional
Staphylococcus aureus [1] = test: Antibacterial activity against methicillin-resistant Staphylococcus aureus assessed as growth inhibition after 16 hrs by agar dilution method
Enterococcus faecalis [2] = test: Antibacterial activity against Enterococcus faecalis assessed as growth inhibition after 16 hrs by agar dilution method
[3] = tested on: Staphylococcus epidermidis; test: Antibacterial activity against methicillin-sensitive Staphylococcus epidermidis assessed as growth inhibition after 16 hrs by agar dilution method
[4] = tested on: Staphylococcus epidermidis; test: Antibacterial activity against methicillin-resistant Staphylococcus epidermidis assessed as growth inhibition after 16 hrs by agar dilution method
Staphylococcus aureus [5] = test: Antibacterial activity against methicillin-sensitive Staphylococcus aureus assessed as growth inhibition after 16 hrs by agar dilution method
Streptococcus pneumoniae [6] = test: Antibacterial activity against penicillin-resistant Streptococcus pneumoniae assessed as growth inhibition after 16 hrs by agar dilution method
Enterococcus faecalis [7] = test: Ratio of linezolid MIC to compound MIC for Enterococcus faecalis
Staphylococcus aureus [8] = test: Ratio of linezolid MIC to compound MIC for methicillin-sensitive Staphylococcus aureus
[9] = tested on: Staphylococcus epidermidis; test: Ratio of linezolid MIC to compound MIC for methicillin-sensitive Staphylococcus epidermidis
Streptococcus pneumoniae [10] = test: Ratio of linezolid MIC to compound MIC for penicillin-resistant Streptococcus pneumoniae

Structure (SMILES)	MIC (Staphylococcus aureus [1])	MIC (Enterococcus faecalis [2])	MIC [3]	MIC [4]	MIC (Staphylococcus aureus [5])	MIC (Streptococcus pneumoniae [6])	Ratio (Enterococcus faecalis [7])	Ratio (Staphylococcus aureus [8])	Ratio [9]	Ratio (Streptococcus pneumoniae [10])
O=C1O[C@@H](Cn2ccnn2)[C@@H]2COc3cc(-c4ccc(Cn5ccnn5)nc4)ccc3N12	1 µg/mL (≈ 2.32 µM)	4 µg/mL (≈ 9.29 µM)	1 µg/mL (≈ 2.32 µM)	1 µg/mL (≈ 2.32 µM)	2 µg/mL (≈ 4.65 µM)	2 µg/mL (≈ 4.65 µM)	–	–	–	–
N#Cc1ccc(-c2ccc3c(c2)OC[C@H]2[C@H](C(N)=O)OC(=O)N32)cn1	–	> 32 µg/mL	> 32 µg/mL	–	> 32 µg/mL	> 32 µg/mL	–	–	–	–
Cc1nc(-c2ccc(-c3ccc4c(c3)OC[C@H]3[C@H](C(N)=O)OC(=O)N43)cn2)no1	–	> 32 µg/mL	> 32 µg/mL	–	> 32 µg/mL	> 32 µg/mL	–	–	–	–
NC(=O)[C@@H]1OC(=O)N2c3ccc(-c4ccc(-n5ccoc5=O)nc4)cc3OC[C@@H]12	> 32 µg/mL	> 32 µg/mL	> 32 µg/mL	> 32 µg/mL	> 32 µg/mL	> 32 µg/mL	–	–	–	–
NC(=O)[C@@H]1OC(=O)N2c3ccc(-c4ccc(Cn5cncn5)nc4)cc3OC[C@@H]12	> 32 µg/mL	> 32 µg/mL	> 32 µg/mL	> 32 µg/mL	> 32 µg/mL	> 32 µg/mL	–	–	–	–
CN1C[C@@H](c2ccc(-c3ccc4c(c3)OC[C@H]3[C@H](Cn5ccnn5)OC(=O)N43)cn2)OC1=O	1 µg/mL (≈ 2.23 µM)	2 µg/mL (≈ 4.46 µM)	0.5 µg/mL (≈ 1.11 µM)	1 µg/mL (≈ 2.23 µM)	0.5 µg/mL (≈ 1.11 µM)	0.25 µg/mL (≈ 0.557 µM)	–	–	–	–
O=C1O[C@@H](Cn2ccnn2)[C@@H]2COc3cc(-c4ccc(CO)nc4)ccc3N12	1 µg/mL (≈ 2.64 µM)	4 µg/mL (≈ 10.5 µM)	1 µg/mL (≈ 2.64 µM)	1 µg/mL (≈ 2.64 µM)	2 µg/mL (≈ 5.27 µM)	2 µg/mL (≈ 5.27 µM)	–	–	–	–
CC(O)c1ccc(-c2ccc3c(c2)OC[C@H]2[C@H](Cn4ccnn4)OC(=O)N32)cn1 (some centres not stated)	1 µg/mL (≈ 2.54 µM)	2 µg/mL (≈ 5.08 µM)	1 µg/mL (≈ 2.54 µM)	1 µg/mL (≈ 2.54 µM)	1 µg/mL (≈ 2.54 µM)	0.5 µg/mL (≈ 1.27 µM)	–	–	–	–
CC(=O)c1ccc(-c2ccc3c(c2)OC[C@H]2[C@H](Cn4ccnn4)OC(=O)N32)cn1	0.5 µg/mL (≈ 1.28 µM)	2 µg/mL (≈ 5.11 µM)	0.5 µg/mL (≈ 1.28 µM)	1 µg/mL (≈ 2.56 µM)	0.5 µg/mL (≈ 1.28 µM)	0.25 µg/mL (≈ 0.639 µM)	–	–	–	–
CCO/N=C(\C)c1ccc(-c2ccc3c(c2)OC[C@H]2[C@H](Cn4ccnn4)OC(=O)N32)cn1	–	> 32 µg/mL	> 32 µg/mL	–	> 32 µg/mL	> 32 µg/mL	–	–	–	–
C/C(=N\OC(C)C)c1ccc(-c2ccc3c(c2)OC[C@H]2[C@H](Cn4ccnn4)OC(=O)N32)cn1	–	> 32 µg/mL	> 32 µg/mL	–	> 32 µg/mL	> 32 µg/mL	–	–	–	–
O=C1O[C@@H](Cn2ccnn2)[C@@H]2COc3cc(-c4ccc(Cn5cncn5)nc4)ccc3N12	0.5 µg/mL (≈ 1.16 µM)	1 µg/mL (≈ 2.32 µM)	0.5 µg/mL (≈ 1.16 µM)	0.5 µg/mL (≈ 1.16 µM)	0.5 µg/mL (≈ 1.16 µM)	2 µg/mL (≈ 4.65 µM)	2	2	2	–
O=C1O[C@@H](Cn2ccnn2)[C@@H]2COc3cc(-c4ccc(Cn5ncnn5)nc4)ccc3N12	1 µg/mL (≈ 2.32 µM)	2 µg/mL (≈ 4.64 µM)	0.5 µg/mL (≈ 1.16 µM)	1 µg/mL (≈ 2.32 µM)	1 µg/mL (≈ 2.32 µM)	2 µg/mL (≈ 4.64 µM)	–	–	–	–
O=C1O[C@@H](Cn2ccnn2)[C@@H]2COc3cc(-c4ccc(Cn5cnnn5)nc4)ccc3N12	2 µg/mL (≈ 4.64 µM)	4 µg/mL (≈ 9.27 µM)	1 µg/mL (≈ 2.32 µM)	1 µg/mL (≈ 2.32 µM)	2 µg/mL (≈ 4.64 µM)	4 µg/mL (≈ 9.27 µM)	–	–	–	–
N#Cc1ccc(-c2ccc3c(c2)OC[C@H]2[C@H](Cn4ccnn4)OC(=O)N32)cn1	0.25 µg/mL (≈ 0.668 µM)	1 µg/mL (≈ 2.67 µM)	0.25 µg/mL (≈ 0.668 µM)	0.25 µg/mL (≈ 0.668 µM)	0.25 µg/mL (≈ 0.668 µM)	0.25 µg/mL (≈ 0.668 µM)	4	4	4	4
Cn1nnnc1-c1ccc(-c2ccc3c(c2)OC[C@H]2[C@H](Cn4ccnn4)OC(=O)N32)cn1	1 µg/mL (≈ 2.32 µM)	4 µg/mL (≈ 9.27 µM)	1 µg/mL (≈ 2.32 µM)	1 µg/mL (≈ 2.32 µM)	2 µg/mL (≈ 4.64 µM)	2 µg/mL (≈ 4.64 µM)	–	–	–	–
Cn1nnc(-c2ccc(-c3ccc4c(c3)OC[C@H]3[C@H](Cn5ccnn5)OC(=O)N43)cn2)n1	2 µg/mL (≈ 4.64 µM)	4 µg/mL (≈ 9.27 µM)	1 µg/mL (≈ 2.32 µM)	2 µg/mL (≈ 4.64 µM)	2 µg/mL (≈ 4.64 µM)	1 µg/mL (≈ 2.32 µM)	–	–	–	–
Cc1nc(-c2ccc(-c3ccc4c(c3)OC[C@H]3[C@H](Cn5ccnn5)OC(=O)N43)cn2)no1	2 µg/mL (≈ 4.64 µM)	8 µg/mL (≈ 18.5 µM)	2 µg/mL (≈ 4.64 µM)	4 µg/mL (≈ 9.27 µM)	2 µg/mL (≈ 4.64 µM)	1 µg/mL (≈ 2.32 µM)	–	–	–	–
O=C1O[C@@H](Cn2ccnn2)[C@@H]2COc3cc(-c4ccc(-n5cc(CO)oc5=O)nc4)ccc3N12	1 µg/mL (≈ 2.16 µM)	1 µg/mL (≈ 2.16 µM)	0.5 µg/mL (≈ 1.08 µM)	1 µg/mL (≈ 2.16 µM)	0.5 µg/mL (≈ 1.08 µM)	0.5 µg/mL (≈ 1.08 µM)	–	–	–	–
CC(=O)NC[C@H]1CN(c2ccc(N3CCOCC3)c(F)c2)C(=O)O1 [LINEZOLID]	1 µg/mL (≈ 2.96 µM)	–	1 µg/mL (≈ 2.96 µM)	1 µg/mL (≈ 2.96 µM)	1 µg/mL (≈ 2.96 µM)	–	–	–	–	–
